Source: a melting point compilation (Tetko et al.)

Row | melting point [°C] | Compound
1 | 49 | CCOC(=O)c1ccc(-c2ccccc2)cc1
2 | 40 | N#Cc1cccc(I)c1
3 | 106 to 107 | O=S(=O)(Cl)c1ccc(-c2cc(C(F)(F)F)on2)s1
4 | 177 | CC(CC(=O)O)C1CCC2C3CCC4CCCCC4(C)C3CCC12C (stereo unspecified)
5 | 96 to 98 | O=Cc1ccc(-c2ccccc2[N+](=O)[O-])o1
6 | 41 | Oc1ccc(F)c(Cl)c1
7 | -60 | C=CC=CC#N
8 | 51 | CCCCCCCCCCCCCCCC(=O)OCCO
9 | 209 | Cc1cccc(/N=N/c2c(N)nn3c(C(F)(F)F)cc(C)nc23)c1
10 | 175 | Cc1c(NC=C2C(=O)NN=C2c2c(O)c3ccccc3n(C)c2=O)c(=O)n(-c2ccccc2)n1C
11 | 128 | Cc1ccc2ccc(=O)oc2c1
12 | 214 to 215 | COc1ccc(/C=N/c2ccc(-c3ccc(/N=N/c4ccccc4)cc3)cc2)cc1
13 | -47 | COc1cccc(C)c1
14 | 63 | CCSc1ccc2c(c1)N(CCCN1CCN(C)CC1)c1ccccc1S2
15 | 299 | Cn1ncc2c(NCCOC(=O)c3cc([N+](=O)[O-])cc([N+](=O)[O-])c3)ncnc21
16 | -73 | CCCC(=O)OC(=O)CCC
17 | 46 | Cc1ccc(S(=O)(=O)OC2CCCCC2)cc1
18 | 220 to 221 | O=S(=O)(O)CC(O)CNC(CO)(CO)CO (stereo unspecified)
19 | 167 | CC(=O)OCCN(CCC#N)c1ccc(N=Nc2nc3ccc([N+](=O)[O-])cc3s2)cc1
20 | 95 to 96 | Cn1nc(-c2cccs2)cc1CO
21 | 263 | Cc1cc(C)n2nc(N)c(/N=N/c3cccc([N+](=O)[O-])c3)c2n1
22 | 154 to 156 | Cc1c(C(=O)CBr)sc2ccc(Cl)cc12

Row | melting point [°C] | Compound
23 | 136 | c1ccc(-c2ccc3c4c(c5c(c3c2)CCCC5)CCCC4)cc1
24 | 120 to 122 | CC1(C)OC2OC(CO)C3OC(C)(C)OC3C2O1 (stereo unspecified)
25 | 201 to 203 | Cc1nc(NC(=O)NS(=O)(=O)c2cccs2)nc(Cl)c1C
26 | 132 | CCOC(=O)c1c(C)cc(O)cc1O
27 | 163 | O=C(O)c1c(F)c(F)c(F)c(F)c1C(=O)O
28 | 312 | O=C(O)[C@H]1CC[C@H](C(=O)O)CC1
29 | 163 | CCCCCNc1cc(=O)oc2ccccc12
30 | 258 to 262 | CCCC(C)(N)P(=O)(O)O (stereo unspecified)
31 | 263 | O=c1[nH]c(=O)n(C2CC(O)C(CO)O2)cc1I (stereo unspecified)
32 | 195 | CC(=O)NC(Cc1c[nH]c2ccccc12)C(N)=O (stereo unspecified)
33 | 81 | CSC(SC)=C(C#N)C(=O)NCc1ccccc1
34 | 189 to 190 | CCOC(=O)C1=C(C)NC(=O)NC1C (stereo unspecified)
35 | 10 | CCOC(=O)CCCCCC(=O)O
36 | 2 | CCC#CCCCCCCCCCCCCCC
37 | 222 | CC=CC1=C(C(=O)O)N2C(=O)C(NC(=O)C(N)c3ccc(O)cc3)C2SC1 (stereo unspecified)
38 | 103 to 105 | CCOC=C(C#N)S(=O)(=O)C(C)(C)C
39 | 210 | O=C(NN=C1CCCCC1)C(=O)NN=C1CCCCC1
40 | 72 | Nc1ccccc1-c1cccnc1
41 | 150 | COCc1c(C(=O)OC(C)C)ncc2[nH]c3ccc(OCc4ccccc4)cc3c12
42 | 148 | Cc1cccc(C)c1NC(=O)CCl
43 | 179 to 180 | CC(=CCNc1ncnc2c1ncn2C1OC(CO)C(O)C1O)CO (stereo unspecified)
44 | 137 | CC=C1CCC2C3CC=C4CC(OC(C)=O)CCC4(C)C3CCC12C (stereo unspecified)

Row | melting point [°C] | Compound
45 | 241 to 243 | Nc1c(I)cc(I)cc1C(=O)O
46 | 223 to 225 | CC(=O)c1ccc(NC(=O)C(C(F)(F)F)(C(F)(F)F)C(F)(F)F)cc1
47 | 107 | CC/C(=N\O)C1=CC2(C)CCC1C2(C)C (stereo unspecified)
48 | 215 | CC12CCC(C1(C)C)C(CC(Br)Cc1ccccc1)(C1(CC(Br)Cc3ccccc3)C(=O)C3(C)CCC1C3(C)C)C2=O (stereo unspecified)
49 | 117 to 119 | CCCc1ccc(C(=O)CCC(=O)O)cc1
50 | 156 | Cc1nc(/C(C#N)=C/c2ccco2)sc1/N=N/c1c(Cl)cc(Cl)cc1Cl
51 | 226 | CCCC1OC2CC3C4CCC5=CC(=O)C=CC5(C)C4C(O)CC3(C)C2(C(=O)CO)O1 (stereo unspecified)
52 | 190 to 195 | O=C1Cc2cc(O)ccc2O1
53 | 76 to 77 | Cc1c(C=O)cnn1-c1ccccc1
54 | 47 | CC(=O)NCCN
55 | 91 | COc1cc2c(cc1OC)CC2
56 | 42 | CCCCCCCCCCCCC(Br)C(=O)O (stereo unspecified)
57 | 146 to 148 | CC1(C)CC(=O)c2cc(-c3ccccc3)n(Cc3cccnc3)c2C1
58 | 51.1 | CCCCCCCCCCCCCCCCO
59 | 130 | CCCCCCCCCCCCSC(C(=O)Nc1cc(C)c(O)c(C)c1C)c1ccccc1 (stereo unspecified)
60 | -9 | C1=CCCCCCCCCCC1
61 | -11 | CCc1ccccc1Cc1ccccc1
62 | 54 | CC1CCC(C(C)C)C(OCC(=O)O)C1 (stereo unspecified)
63 | 163 | Cc1ccc(CC(=O)Nc2ccc(C)cc2)cc1
64 | -68 | C[Si](C)(C)O[Si](C)(C)O[Si](C)(C)O[Si](C)(C)C
65 | 150 | ON=C(Cc1ccccc1)c1cccc2ccccc12
66 | 156 | O=C(O)c1ccc2c(c1)OC(F)(F)O2

Row | melting point [°C] | Compound
67 | 241 to 243 | NN=C1c2ccccc2C(=O)C1C(=O)C(c1ccccc1)c1ccccc1 (stereo unspecified)
68 | 192 to 196 | O=C(O)C=Cc1c(Cl)cccc1Cl
69 | 134 to 136 | ON=Cc1ccc(Cl)cc1Cl
70 | 184 | CCCCC(=O)OC1(C(=O)CO)C(C)CC2C3CCC4=CC(=O)C=CC4(C)C3(F)C(O)CC21C (stereo unspecified)
71 | 153 to 155 | CCOC(=O)c1c(C)oc(NC(=O)Nc2cccc(C(F)(F)F)c2)c1C(=O)OCC
72 | 20.5 | N#CC#CC#N
73 | 63 to 108 | CCCCCCCCC(=O)c1ccc(/N=N/c2ccc(OCC)cc2)cc1
74 | 125 to 126 | O=C(Cl)c1csc2ccc(Br)cc12
75 | 255 to 257 | CCOC(=O)c1cn[nH]c1NC(=O)Nc1ccc(F)cc1
76 | 152 | O=C1CCC(=O)C1
77 | 115 | CCCCOc1ccc(-c2nn(CCC#N)c(=S)[nH]2)cc1
78 | -64 | C=Cc1ccc(C)cc1C
79 | 88 | CCCCCCCCCCCCCCCCCCCCCCCCCCCCCCO
80 | 41.5 | CCCCN(CCN(CCCC)C(=O)N1CCOCC1)C(=O)N1CCOCC1
81 | 221 | CC#CCN1C(=O)c2ccccc2C1=O
82 | 208 | Nc1ccc([N+](=O)[O-])cc1O
83 | 215 | Nc1ccc(C(=O)O)cc1F
84 | 103 to 105 | CCCCCCCNC(=O)OCC1OC(OC)C(O)C(O)C1O (stereo unspecified)
85 | 285 | CC(=O)Nc1cc(CCNC(=O)c2ccccc2)c(NC(C)=O)cc1CCNC(=O)c1ccccc1
86 | 204 | CC(CO)(CO)CO
87 | 109 | Cc1ccccc1NN=C1C(=O)CC(C)(C)CC1=O
88 | 261 to 264 | Cc1c(C)c(C#N)c2ccccc2c1C#N

Row | melting point [°C] | Compound
89 | 151 to 154 | CC(C)n1cc(C#N)c(=O)n(Cc2ccccc2)c1=O
90 | 93 | COc1cc(C)cc(OC)c1C=O
91 | -22 | CCCCCCCCCCC1CCCC1
92 | 118 | Oc1cccc(I)c1
93 | 196 | O=C(O)c1ccc(C2CCCCC2)cc1
94 | 205 to 215 | O=C(O)c1cc(N(Cc2ccccc2O)Cc2cc(O)ccc2O)ccc1O
95 | 147 | Cc1ccsc1C(=O)O
96 | 107 | Cc1ccc(O)c(C(O)c2ccc(Br)cc2)c1 (stereo unspecified)
97 | 112 | O=C(O)COc1ccc(CO)cc1
98 | -90 | C=COC(=O)C(CC)CCCC (stereo unspecified)
99 | 77 | O=C1CC(c2ccccc2)c2ccccc21 (stereo unspecified)
100 | 84 | CC(=O)c1ccc(S(=O)(=O)Cl)cc1
101 | 84 to 86 | C=CCOc1ccc2c(=O)cc(C(=O)OCC)oc2c1CCC
102 | 101 | CC(=O)c1ccc(C#Cc2ccccc2)cc1
103 | 135 | COc1ccc2c(c1)c(C=O)cn2C
104 | 287 | Cc1cc2c(C#N)c3sc4ccccc4n3c(=O)c2c(C)n1
105 | 127 | Nc1cc(F)ccc1-n1ccnc1
106 | 156 | O=C1CCC(=O)N1c1ccccc1
107 | 71 | O=[N+]([O-])c1ccc(Oc2ccccc2)c([N+](=O)[O-])c1
108 | 68 | O=S(=O)(Cl)c1cccc2ccccc12

Row | Compound | melting point [°C]
109 | Nc1nc[nH]c(=O)n1 | 300
110 | NNC(=S)NN | 168 to 172
111 | CC(Cl)CCl (stereo unspecified) | -100
112 | ClC(Cl)(Cl)C(Cl)(Cl)Cl | 187
113 | CCNc1nc(Cl)nc(NC(C)(C)C#N)n1 | 168
114 | CCN(CC)C(=O)C(C)Oc1cccc2ccccc12 (stereo unspecified) | 75
115 | CBr | -93.7
116 | Nc1ncnc2[nH]nnc12 | > 300
117 | COC(=O)c1coc(CCl)n1 | 74 to 76
118 | O=C(CCCN1CCC(n2c(=O)[nH]c3ccccc32)CC1)c1ccc(F)cc1 | 170
119 | CN1CCN(Cc2ccccc2CO)CC1 | 62 to 64
120 | CCSCc1ccccc1OC(=O)NC | 33.4
121 | O=S1OCC2C(CO1)C1(Cl)C(Cl)=C(Cl)C2(Cl)C1(Cl)Cl (stereo unspecified) | 109
122 | Cc1cc(C)c(CCl)cc1CCl | 97 to 99
123 | N#CC1(c2ccc(F)cc2)CCCCC1 | 33 to 38
124 | CC1CC2(C)C(CCC3C4CCC(O)C4(C)CCC32)CC1=O (stereo unspecified) | 151
125 | CCC(CC)Nc1c([N+](=O)[O-])cc(C)c(C)c1[N+](=O)[O-] | 58
126 | CC1(C)CC(=O)C(Cl)C(=O)C1 | 163
127 | O=C(O)c1cccc(OOCl)c1 | 92
128 | CCOP(=O)(OCC)On1nnc2ccccc2c1=O | 74
129 | O=c1cccc2n1CC1CNCC2C1 (stereo unspecified) | 152
130 | CCCN(CC)CC1COC2(CCC(C(C)(C)C)CC2)O1 (stereo unspecified) | < 25
131 | C=CCc1cc(OC)c2c(c1OC)OCO2 | 29.5
